Measured values reported in US20070213359A1 (ACADIA Pharmaceuticals Inc., priority 2005, published 2007).
Like-named read-outs stand apart in the source and are kept apart here.

Biological target: Ghrelin receptor (Homo sapiens, UniProt Q92847)
Assay: Receptor Selection and Amplification Technology (R-SAT) assay
Type: cell-based
Parameters: expressed in transfected cells; host or cells: NIH3T3
Conditions: for IC50: negative logarithm of ligand concentration causing 50% inhibition of constitutive receptor response, transfected NIH3T3 cells, '—' not defined (nd used separately), read-out: RSAT pIC50 (converted); for Emax: read-out: RSAT Eff(%)
[1] = percent inhibition at saturating ligand, normalized to reference ligand Substance P analog = 100%

Ghrelin receptor, sequence (Q92847 whole entry): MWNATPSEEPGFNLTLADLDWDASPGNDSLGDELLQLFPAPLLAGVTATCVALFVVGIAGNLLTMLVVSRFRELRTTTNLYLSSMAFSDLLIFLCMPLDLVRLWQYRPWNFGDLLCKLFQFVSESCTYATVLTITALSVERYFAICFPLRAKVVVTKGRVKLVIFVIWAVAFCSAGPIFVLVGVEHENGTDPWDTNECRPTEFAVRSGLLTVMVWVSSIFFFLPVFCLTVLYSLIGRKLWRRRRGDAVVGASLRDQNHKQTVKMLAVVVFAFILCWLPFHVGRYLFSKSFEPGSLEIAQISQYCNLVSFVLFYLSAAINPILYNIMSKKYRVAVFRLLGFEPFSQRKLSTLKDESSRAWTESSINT

Row | IC50 | Emax [1] | Compound | Emax
1 | 316 nM | 59% | CCC(=O)c1cn(CCCN2CCC(c3ccccc3OC)CC2)c2ccccc12 | –
2 | 316 nM | 112% | CC(C)CC(=O)c1cn(CCCN2CCC(Oc3ccc(Cl)cc3)CC2)c2ccccc12 | –
3 | 316 nM | 76% | CCC(=O)c1cn(CCCN2CCC(Oc3ccccc3Cl)CC2)c2ccccc12 | –
4 | 398 nM | 81% | CC(=O)c1cn(CCCCN2CCC(c3nc4ccccc4s3)CC2)c2ccccc12 | –
5 | 398 nM | 85% | CCCCC1CCN(CCCn2cc(C(=O)CC(C)C)c3ccccc32)CC1 | –
6 | 398 nM | 65% | CC(=O)c1cn(CC(C)CN2C3CCC2CC(OCC2CC2)C3)c2ccccc12 (stereo not drawn) | –
7 | 398 nM | 77% | CC(=O)c1cn(CCN2CCC(Cc3ccccc3)CC2)c2ccccc12 | –
8 | 501 nM | 108% | COc1ccc2c(C(C)=O)cn(CCCN3C4CCC3CC(OC3=CC=C(Cl)CC3)C4)c2c1 (stereo not drawn) | –
9 | 501 nM | 103% | O=C(c1cn(CCCN2C3CCC2CC(OCC2CC2)C3)c2ccccc12)C(F)(F)F (stereo not drawn) | –
10 | 501 nM | 98% | CC(=O)c1cn(CC(C)CN2CCC(Oc3ccc(F)cc3)CC2)c2ccccc12 (stereo not drawn) | –
11 | 501 nM | 74% | CCCCC1CCN(CCCn2cc(C(=O)C(F)(F)F)c3ccccc32)CC1 | –
12 | 501 nM | 130% | CC(=O)c1cn(CCCN2C3CCC2CC(OCC2CC2)C3)c2cc(Br)ccc12 (stereo not drawn) | –
13 | 501 nM | 41% | CC(=O)c1cn(CCCN2C3CCC2CC(CC(=O)c2ccc(Cl)cc2)C3)c2c(Cl)cccc12 (stereo not drawn) | –
14 | 631 nM | 74% | CCCOC1CCN(CC(C)Cn2cc(C(C)=O)c3ccccc32)CC1 (stereo not drawn) | –
15 | 631 nM | 100% | COc1ccccc1C1CCN(CCCn2cc(C(=O)CC(C)C)c3ccccc32)CC1 | –
16 | 631 nM | 76% | CCCCC1CCN(CCCn2cc(CCC(C)=O)c3ccccc32)CC1 | –
17 | 794 nM | 101% | CC(=O)c1cn(CCCN2C3CCC2CC(Oc2ccccc2Cl)C3)c2c(C)cccc12 (stereo not drawn) | –
18 | 794 nM | 90% | CCC(=O)c1cn(CCCN2CCC(Oc3ccc(F)cc3)CC2)c2ccccc12 | –

Row | IC50 | Emax [1] | Compound | Emax
19 | 1000 nM | 35% | CC(=O)c1cn(CC(C)CN2CCN(C(C)c3ccccc3)CC2)c2ccccc12 (stereo not drawn) | –
20 | 1000 nM | 92% | CCCCC1CCN(CCCn2cc(C(=O)CC)c3ccccc32)CC1 | –
21 | 1000 nM | 95% | COc1ccc2c(c1)c(C(C)=O)cn2CCCN1CCC(Oc2ccccc2Cl)CC1 | –
22 | 1000 nM | 69% | COc1cccc2c(C(C)=O)cn(CCCN3CCC4CCCCC4C3)c12 (stereo not drawn) | –
23 | 1260 nM | 105% | COc1ccc2c(c1)c(C(C)=O)cn2CCCN1C2CCC1CC(Oc1ccc(Cl)cc1)C2 (stereo not drawn) | –
24 | 1580 nM | 109% | CCC(=O)c1cn(CCCN2CCC(Cc3ccccc3)CC2)c2ccccc12 | –
25 | 1580 nM | 96% | CC(C)CC(=O)c1cn(CCCN2CCC(Oc3ccccc3Cl)CC2)c2ccccc12 | –
26 | 2000 nM | 76% | CCCCC1CCN(CC(C)Cn2cc(C(C)=O)c3ccccc32)CC1 (stereo not drawn) | –
27 | 2000 nM | 58% | COc1ccccc1C1CCN(CCCCn2cc(C(C)=O)c3ccccc32)CC1 | –
28 | 2000 nM | 69% | CC(=O)c1cn(CCCCN2CCN(C(C)c3ccccc3)CC2)c2ccccc12 (stereo not drawn) | –
29 | 2000 nM | 66% | COc1ccc2c(c1)c(C(C)=O)cn2CCCN1CCC(c2ccccc2OC)CC1 | –
30 | 2000 nM | 67% | CC(C)CC(=O)c1cn(CCCN2CCC(C(=O)c3ccccc3)CC2)c2ccccc12 | –
31 | 2510 nM | 71% | CCCOC1CCN(CC(C)Cn2c(=O)sc3ccccc32)CC1 (stereo not drawn) | –
32 | 2510 nM | 120% | CCC(=O)c1cn(CCCN2C3CCC2CC(OCC2CC2)C3)c2ccccc12 (stereo not drawn) | –
33 | 2510 nM | 78% | CC(=O)c1cn(CC(C)CN2CCC(c3nc4ccccc4s3)CC2)c2ccccc12 (stereo not drawn) | –
34 | 2510 nM | -11% | CC(=O)c1cn(CCN2C3CCC2CC(O)(c2ccc(F)cc2)C3)c2ccccc12 (stereo not drawn) | –
35 | 3160 nM | 119% | CC(=O)c1cn(CCCCN2C3CCC2CC(Oc2ccc(Cl)cc2)C3)c2ccccc12 (stereo not drawn) | –

The next lines start with the molecule.

Row | Compound | IC50 | Emax [1] | Emax
36 | CC(=O)c1cn(CCCN2CCCN(CCc3ccccc3)CC2)c2ncccc12 | 251 nM | 84% | –
37 | CC(=O)c1cn(CCCN2CCC3(CC2)CC(=O)c2ccccc2O3)c2c(C)cccc12 | 316 nM | 71% | –
38 | COc1cccc2c(C(C)=O)cn(CCCN3CCC4(CC3)C(=O)NCN4c3ccccc3)c12 | 316 nM | – | 38%
39 | CCCCC(=O)c1cn(CCCN2CCC(c3ccccc3OC)CC2)c2ccc(OC)cc12 | 316 nM | 101% | –
40 | CCCCC1CCN(CCCn2cc(C(C)=O)c3cccc(Cl)c32)CC1 | 316 nM | 80% | –
41 | CCOC(=O)C1CCN(CCCn2cc(C(C)=O)c3cccc(OC)c32)CC1 | 398 nM | 127% | –
42 | O=C(c1cn(CCCN2CCC(c3nc4ccccc4s3)CC2)c2ccccc12)C(F)(F)F | 398 nM | 88% | –
43 | CC(=O)c1c(C)n(CCCN2CCCN(Cc3ccc(F)cc3)CC2)c2c(Br)cccc12 | 398 nM | 49% | –
44 | COc1ccc2c(C(C)=O)cn(CCCN3CCC(Oc4ccc(Cl)cc4)CC3)c2c1 | 398 nM | 67% | –
45 | CCCCC1CCN(CCCn2cc(C(C)=O)c3cc(OC)ccc32)CC1 | 398 nM | 118% | –
46 | COc1cccc2c(C#N)cn(CCCN3CCN(c4ncc(C(F)(F)F)cc4Cl)CC3)c12 | 398 nM | 97% | –
47 | CC(=O)c1cn(CCCN2CCC(c3nc(-c4ccccc4)no3)CC2)c2c(Br)cccc12 | 501 nM | 69% | –
48 | CC(=O)c1cn(CCCN2CCN(CCOc3ccccc3)CC2)c2c(Br)cccc12 | 501 nM | 91% | –
49 | COc1ccc2c(c1)c(C(C)=O)cn2CCCN1CCC(Oc2ccc(Cl)cc2)CC1 | 501 nM | 104% | –
50 | CC(C)CNC(=O)c1cn(CCCN2CCC(Oc3ccc(F)cc3)CC2)c2ccccc12 | 501 nM | – | 94%
51 | COc1ccc2c(c1)c(C(C)=O)cn2CCCN1CCN(C(C)c2ccccc2)CC1 (stereo not drawn) | 501 nM | 77% | –
52 | COc1ccccc1C1CCN(CCCn2cc(C(C)=O)c3cccc(Cl)c32)CC1 | 501 nM | 103% | –
53 | COc1cccc2c(C(C)=O)cn(CCCN3CCN(CC4CCCO4)CC3)c12 (stereo not drawn) | 631 nM | 98% | –
54 | CC(=O)c1cn(CCCN2CCC(c3nc(-c4cccnc4)no3)CC2)c2c(Cl)cccc12 | 631 nM | 101% | –
55 | O=C(c1ccccc1)C1CCN(CCCn2cc(C(=O)C(F)(F)F)c3ccccc32)CC1 | 631 nM | 63% | –
56 | CCCCC1CCN(CCCn2cc(C(C)=O)c3ccc(OC)cc32)CC1 | 631 nM | 63% | –
57 | COc1ccc2c(c1)c(C(C)=O)cn2CCCN1CCC(Oc2ccc(F)cc2)CC1 | 631 nM | 58% | –
58 | CC(=O)c1cn(CCCN2CCN(CCOc3ccccc3)CC2)c2ncccc12 | 631 nM | 81% | –

Row | Compound | IC50 | Emax [1] | Emax
59 | CCCCC(=O)c1cn(CCCN2CCC(C(=O)c3ccccc3)CC2)c2ccc(OC)cc12 | 794 nM | – | 98%
60 | COc1ccc2c(C(C)=O)cn(CCCN3CCC(C(=O)c4ccccc4)CC3)c2c1 | 794 nM | 66% | –
61 | O=C(c1cn(CCCN2CCC(Oc3ccc(F)cc3)CC2)c2ccccc12)C(F)(F)F | 794 nM | 75% | –
62 | COc1ccc2[nH]c3c(c2c1)CCN(CCCn1cc(C(=O)CC(C)C)c2ccccc21)C3 | 1000 nM | – | 123%
63 | COc1ccc2c(c1)c(C(C)=O)cn2CCCN1CCC(C(=O)c2ccccc2)CC1 | 1000 nM | 72% | –
64 | CC(=O)c1cn(CCCN2CCCC(Oc3ccc(Cl)cc3)C2)c2c(Br)cccc12 (stereo not drawn) | 1260 nM | 46% | –
65 | CC(=O)CCc1cn(CCCN2CCC(Oc3ccc(F)cc3)CC2)c2ccccc12 | 1260 nM | 80% | –
66 | CCCCC(=O)c1cn(CCCN2CCN(C(C)c3ccccc3)CC2)c2ccc(OC)cc12 (stereo not drawn) | 1260 nM | 81% | –
67 | CCCOC1CCN(CCCn2cc(C(C)=O)c3ccc(OC)cc32)CC1 | 1260 nM | 61% | –
68 | CC(=O)c1cn(CCCN2CCC(Oc3ccc(Cl)cc3)CC2)c2cc(Br)ccc12 | 1260 nM | 74% | –
69 | CC(=O)c1c(C)n(CCCN2CCN(CCOc3ccccc3)CC2)c2c(Br)cccc12 | 1260 nM | 57% | –
70 | CC(=O)c1cn(CCCN2CCN(C(C)c3ccccc3)CC2)c2ccc(Br)cc12 (stereo not drawn) | 1260 nM | 72% | –
71 | O=C(c1cn(CCCN2CCC(Oc3ccc(Cl)cc3)CC2)c2ccccc12)C(F)(F)F | 1580 nM | 77% | –
72 | COc1ccccc1C1CCN(CCCn2cc(C(=O)C(F)(F)F)c3ccccc32)CC1 | 1580 nM | 82% | –
73 | CCCCC1CCN(CC(C)Cn2c(=O)sc3ccccc32)CC1 (stereo not drawn) | 2000 nM | 84% | –
74 | O=C(c1cn(CCCN2CCC(Oc3ccccc3Cl)CC2)c2ccccc12)C(F)(F)F | 2000 nM | 81% | –
75 | CC(=O)CCc1cn(CCCN2CCN(C(C)c3ccccc3)CC2)c2ccccc12 (stereo not drawn) | 2000 nM | 46% | –
76 | CC(=O)c1cn(CCCN2CCC(Oc3ccc(Cl)cc3)CC2)c2c(Cl)cccc12 | 2000 nM | 107% | –
77 | COc1cccc2c(C(C)=O)cn(CCCN3CCC(N(C)C(C)=O)C3)c12 (stereo not drawn) | 2510 nM | 60% | –
78 | CC(=O)c1cn(CCCN2CCC(Oc3ccc(F)cc3)CC2)c2cc(Br)ccc12 | 2510 nM | 64% | –
79 | CCC(=O)c1cn(CCCN2CCN(C(C)c3ccccc3)CC2)c2ccccc12 (stereo not drawn) | 2510 nM | 57% | –
80 | CC(=O)CCc1cn(CCCN2CCC(c3nc4ccccc4s3)CC2)c2ccccc12 | 2510 nM | 84% | –
81 | COc1ccc2[nH]c3c(c2c1)CCN(CCCn1cc(C(=O)C(F)(F)F)c2ccccc21)C3 | 2510 nM | 106% | –
